Type in all cases: biochemical
Experiment [1] deals with SIK1 (Homo sapiens, UniProt P57059). Nature of the experiment: Enzymatic activity assay SIK1, RapidFire mass spectrometry (phosphorylation of CHK-peptide). Particulars: RapidFire MS, inhibition of SIK1; read-out: SIK1 RF IC50. The procedure:
(§1) Assay description SIK1-3, RapidFire:
(§2) In the presence of SIK2 (resp. SIK1 or SIK3) and ATP the CHK-peptide ([…] with C-terminal arginine amide modification) were phosphorylated at one of the four feasible serine's. Only one phosphorylation is observed under the assay conditions. 60 nl of each compound dilution series (12 point; dilution factor 3, generally 30 μM to 170 pM) in DMSO were transferred by acoustic dispensing to the assay plate and 30 min pre-incubated (ambient temperature) after the addition of 5 μl SIK1 (5 nM) resp. 5 μl SIK2 (0.5 nM) or 7 μl SIK3 (1.5 nM) in assay-buffer (12.5 mM HEPES (pH 7.0), 10 mM magnesium acetate, 0.005% BSA). 10 μM CHK-peptide solution and 5 μl 100 μM ATP for SIK1 & SIK2 resp. 3 μl for SIK3 in assay-buffer were added and incubated ambient for 45 min. 40 μl 0.125% formic acid in water were added to quench the reaction. RapidFire (RF) Mass Spectrometry was utilized for data generation as described below. The multiple charged species (3-5 charges) for the phosphorylated and non-phosphorylated form measured by MRM (Multiple Reaction Monitoring; API5000 or 6500+) or EIC (Extracted Ion Current; QToF) were summed up and the ratio calculated (sum phosphorylated species/sum all species) for data evaluation. Normalization was performed by Genedata software based on the non-inhibition control DMSO and the commercially available SIK inhibitor @ 1 μM YKL-05-099 (CAS number 1936529-65-5). The results of the assay are expressed in half-maximal inhibitory concentrations (IC50s) and are summarized below in Table 1.
(§3) Samples were aspirated by vacuum for max. 600 ms and loaded to C4-cartridge (Agilent; #G9203A) for 3000 ms@1.5 ml/min with 0.1% formic acid in water. Afterwards samples were transferred to the APT5000 (APT6500+) or QToF mass spectrometer for 4000 ms@1.25 ml/min with 90% acetonitrile; 10% water; 0.007% TFA; 0.093 formic acid. The cartridge was reconditioned for additional 500 ms with 0.1% formic acid in water
(§4) All MS analyses using the following MS-setup in MRM mode: Electrospray positive; Ion Spray Voltage: 4000V; Temperature: 550° C.; Collision Gas: 5; Curtain Gas: 15; Gas1: 40; Gas 2: 42; EP: 10
(§5) MS-Setup Agilent QToF 6545
(§6) All MS analyses using the following MS-setup in Mode MS: Dual AJS Electrospray positive; VCap: 3000V; Drying & Sheath gas: 340° C.@81/min; Nebulizer: 60 psig; Nozzle Voltage: 2000V; Fragmentor: 130V; Skimmer: 35V; Oct1 RF Vpp: 700V; Ref masses on@5spectra/s

The target in experiment [2] is SIK3 (Homo sapiens, UniProt Q9Y2K2). Nature of the experiment: Enzymatic activity assay SIK3, RapidFire mass spectrometry (phosphorylation of CHK-peptide). The note with it: RapidFire MS, inhibition of SIK3; read-out: SIK3 RF IC50. The method, then:
as §1, §2, §3, §4, §5, §6

The target in experiment [3] is SIK2 (Homo sapiens, UniProt Q9H0K1). Nature of the experiment: Enzymatic activity assay SIK2, RapidFire mass spectrometry (phosphorylation of CHK-peptide). The note with it: RapidFire MS, inhibition of SIK2; read-out: SIK2 RF IC50. The procedure:
as §1
as §2, with “Only one phosphorylation is observed under the assay conditions. 60 nl of each compound dilution series (12 point; dilution factor 3, generally 30 μM to 170 pM) in DMSO were transferred by acoustic dispensing to the assay plate and 30 min pre-incubated (ambient temperature) after the addition of 5 μl SIK1 (5 nM) resp.” left out, “1936529-65-5).” for “1936529-65-5). The results of the assay are expressed in half-maximal inhibitory concentrations (IC50s) and are summarized below in Table 1.”
as §3, §4, §5, §6

Sequence of SIK2 (Q9H0K1 whole entry): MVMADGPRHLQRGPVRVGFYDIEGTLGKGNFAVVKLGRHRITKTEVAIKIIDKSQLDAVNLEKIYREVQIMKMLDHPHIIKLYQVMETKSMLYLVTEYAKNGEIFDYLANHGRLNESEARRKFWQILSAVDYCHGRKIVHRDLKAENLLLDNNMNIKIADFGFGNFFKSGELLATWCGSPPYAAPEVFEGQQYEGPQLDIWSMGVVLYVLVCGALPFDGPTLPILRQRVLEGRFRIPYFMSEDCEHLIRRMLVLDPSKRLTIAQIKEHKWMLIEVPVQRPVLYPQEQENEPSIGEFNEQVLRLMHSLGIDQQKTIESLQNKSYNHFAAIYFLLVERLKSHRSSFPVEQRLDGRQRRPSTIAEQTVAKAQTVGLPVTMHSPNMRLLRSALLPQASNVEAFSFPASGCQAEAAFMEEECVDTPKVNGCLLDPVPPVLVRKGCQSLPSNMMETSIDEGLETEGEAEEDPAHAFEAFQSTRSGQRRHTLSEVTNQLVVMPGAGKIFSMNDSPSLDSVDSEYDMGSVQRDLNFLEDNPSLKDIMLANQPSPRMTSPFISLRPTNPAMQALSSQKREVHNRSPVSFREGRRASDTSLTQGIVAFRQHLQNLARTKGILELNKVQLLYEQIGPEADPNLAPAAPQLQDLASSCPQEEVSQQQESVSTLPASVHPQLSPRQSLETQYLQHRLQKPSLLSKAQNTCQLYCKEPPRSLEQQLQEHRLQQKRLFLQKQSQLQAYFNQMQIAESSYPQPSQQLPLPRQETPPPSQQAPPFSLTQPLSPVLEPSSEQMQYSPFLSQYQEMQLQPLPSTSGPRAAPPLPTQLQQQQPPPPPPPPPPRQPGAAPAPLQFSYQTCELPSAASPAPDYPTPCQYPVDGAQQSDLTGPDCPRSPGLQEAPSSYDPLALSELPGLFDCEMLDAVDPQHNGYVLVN
Sequence of SIK1 (P57059 whole entry): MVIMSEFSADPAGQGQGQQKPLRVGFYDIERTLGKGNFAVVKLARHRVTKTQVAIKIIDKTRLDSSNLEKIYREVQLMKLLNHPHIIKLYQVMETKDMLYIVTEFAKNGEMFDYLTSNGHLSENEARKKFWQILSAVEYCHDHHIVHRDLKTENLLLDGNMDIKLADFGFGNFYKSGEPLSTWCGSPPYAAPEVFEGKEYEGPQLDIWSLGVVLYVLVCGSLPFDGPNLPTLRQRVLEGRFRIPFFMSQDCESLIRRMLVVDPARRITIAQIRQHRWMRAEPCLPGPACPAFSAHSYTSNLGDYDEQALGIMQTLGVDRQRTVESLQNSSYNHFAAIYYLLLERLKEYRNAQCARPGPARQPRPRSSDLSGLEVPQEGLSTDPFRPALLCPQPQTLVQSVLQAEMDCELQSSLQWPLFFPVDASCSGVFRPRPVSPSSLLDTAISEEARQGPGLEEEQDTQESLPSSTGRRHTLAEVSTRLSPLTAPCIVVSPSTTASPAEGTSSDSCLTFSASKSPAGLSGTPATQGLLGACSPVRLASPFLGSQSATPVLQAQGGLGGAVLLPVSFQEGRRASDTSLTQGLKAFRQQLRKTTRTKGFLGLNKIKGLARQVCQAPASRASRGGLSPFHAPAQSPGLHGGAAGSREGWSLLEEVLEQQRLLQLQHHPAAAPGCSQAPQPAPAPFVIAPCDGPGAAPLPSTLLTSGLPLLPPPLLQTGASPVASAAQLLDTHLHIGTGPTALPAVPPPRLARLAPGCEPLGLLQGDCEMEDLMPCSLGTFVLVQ
Sequence of SIK3 (Q9Y2K2 whole entry): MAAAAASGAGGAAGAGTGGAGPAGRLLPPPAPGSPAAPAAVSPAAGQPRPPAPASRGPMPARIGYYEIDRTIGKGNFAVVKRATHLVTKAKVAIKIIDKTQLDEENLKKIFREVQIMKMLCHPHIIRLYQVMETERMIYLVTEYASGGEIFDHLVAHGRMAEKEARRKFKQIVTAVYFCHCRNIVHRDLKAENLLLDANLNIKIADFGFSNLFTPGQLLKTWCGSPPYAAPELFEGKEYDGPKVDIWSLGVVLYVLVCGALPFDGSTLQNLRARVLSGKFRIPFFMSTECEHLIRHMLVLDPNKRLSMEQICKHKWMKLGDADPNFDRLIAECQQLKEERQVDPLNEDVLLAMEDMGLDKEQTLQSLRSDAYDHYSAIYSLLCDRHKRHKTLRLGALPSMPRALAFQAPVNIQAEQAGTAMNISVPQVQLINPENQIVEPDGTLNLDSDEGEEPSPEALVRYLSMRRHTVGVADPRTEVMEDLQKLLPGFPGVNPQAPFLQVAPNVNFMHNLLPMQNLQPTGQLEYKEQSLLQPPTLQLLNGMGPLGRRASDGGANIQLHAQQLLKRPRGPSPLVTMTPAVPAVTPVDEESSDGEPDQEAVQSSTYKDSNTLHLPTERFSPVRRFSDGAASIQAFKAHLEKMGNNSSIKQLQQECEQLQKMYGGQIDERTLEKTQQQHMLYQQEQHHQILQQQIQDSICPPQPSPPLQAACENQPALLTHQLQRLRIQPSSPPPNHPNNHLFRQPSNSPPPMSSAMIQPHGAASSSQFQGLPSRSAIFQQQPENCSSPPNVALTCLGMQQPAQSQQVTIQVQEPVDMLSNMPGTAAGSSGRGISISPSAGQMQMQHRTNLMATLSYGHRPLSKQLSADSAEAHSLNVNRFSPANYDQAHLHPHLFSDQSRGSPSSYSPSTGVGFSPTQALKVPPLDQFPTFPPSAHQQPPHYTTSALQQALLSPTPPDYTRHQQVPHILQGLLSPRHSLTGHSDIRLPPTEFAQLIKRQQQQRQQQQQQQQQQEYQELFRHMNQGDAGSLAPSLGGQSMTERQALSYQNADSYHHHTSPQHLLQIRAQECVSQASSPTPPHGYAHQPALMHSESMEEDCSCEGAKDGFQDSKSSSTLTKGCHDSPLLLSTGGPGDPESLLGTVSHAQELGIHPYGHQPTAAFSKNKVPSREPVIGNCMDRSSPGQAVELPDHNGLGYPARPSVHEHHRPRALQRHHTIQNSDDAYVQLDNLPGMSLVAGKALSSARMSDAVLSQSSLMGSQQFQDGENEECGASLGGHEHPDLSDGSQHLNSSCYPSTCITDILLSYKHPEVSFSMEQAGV

The IC50 is the midpoint of a concentration-inhibition curve. In the case of `Cc1ccc(Nc2ccc3c(c2)ncn3-c2ccc(C(C)O)c(-n3ncc(C#N)n3)n2)nn1` (stereo not drawn) [Example 256, 2-[3-(1-Hydroxyethyl)-6-[5-[(6-methylpyridazin-3-yl)amino]benzimidazol-1-yl]-2-pyridyl]triazole-4-carbonitrile], the results for the IC50 in experiment [1], in experiment [2] and in experiment [3] were 1530 nM, 4.8 nM and 22 nM, respectively.
For `Cc1cc(C#N)nn1-c1nc(-n2cnc3cc(CN4CCCCC4=O)ccc32)ccc1C(C)O` (stereo not drawn) [Example 216, 1-[3-(1-Hydroxyethyl)-6-[5-[(2-oxo-1-piperidyl)methyl]benzimidazol-1-yl]-2-pyridyl]-5-methyl-pyrazole-3-carbonitrile] the same measures were 10800 nM, 476 nM and 2240 nM.
For the compound `Cc1cc(C(F)F)nn1-c1nc(-n2cnc3cc(Nc4cc5c(nn4)CCOC5)ccc32)ccc1CO` [Example 317, [2-[3-(difluoromethyl)-5-methyl-pyrazol-1-yl]-6-[5-(7,8-dihydro-5H-pyrano[4,3-c]pyridazin-3-ylamino)benzimidazol-1-yl]-3-pyridyl]methanol], the values for the IC50 in experiment [1], in experiment [2] and in experiment [3] were 961 nM, 2.6 nM and 7.6 nM, respectively.
With `Cc1ccc(Nc2ccc3c(c2)ncn3-c2ccc(C(C)O)c(-c3cc(OC(F)F)nnc3C)n2)nn1` (stereo not drawn) [Example 396, 1-[2-[6-(difluoromethoxy)-3-methyl-pyridazin-4-yl]-6-[5-[(6-methylpyridazin-3-yl)amino]benzimidazol-1-yl]-3-pyridyl]ethanol], the concentration for half-maximal inhibition (IC50) in experiment [1] was found to be 1120 nM; in experiment [2], 5.6 nM; in experiment [3], 13.5 nM.
For `Cc1cc(C#N)nn1-c1nc(-n2cnc3cc(Nc4cc5c(nn4)CCC5)c(F)cc32)ccc1C(C)O` (stereo not drawn) [Example 382, 1-[6-[5-(6,7-dihydro-5~{H}-cyclopenta[c]pyridazin-3-ylamino)-6-fluoro-benzimidazol-1-yl]-3-(1-hydroxyethyl)-2-pyridyl]-5-methyl-pyrazole-3-carbonitrile] the same measures were 207 nM, 0.6 nM and 0.5 nM.
For the compound `COC1CN(C(=O)c2ccc(Nc3ccc4c(c3)ncn4-c3ccc(C(C)O)c(-n4nc(C#N)cc4C)n3)nn2)C1` (stereo not drawn) [Example 191, 1-[3-(1-Hydroxyethyl)-6-[5-[[6-(3-methoxyazetidine-1-carbonyl)pyridazin-3-yl]amino]benzimidazol-1-yl]-2-pyridyl]-5-methyl-pyrazole-3-carbonitrile], the results for the IC50 in experiment [1], in experiment [2] and in experiment [3] were 53 nM, 2.2 nM and 2.7 nM, respectively.
The corresponding values for `COC(C)Cn1cc(-c2nc(-n3cnc4cc(Nc5ccc(C)nn5)ccc43)ccc2C(C)O)c(C)n1` (stereo not drawn) [Example 278, 1-[2-[1-(2-methoxypropyl)-3-methyl-pyrazol-4-yl]-6-[5-[(6-methylpyridazin-3-yl)amino]benzimidazol-1-yl]-3-pyridyl]ethanol] are 249 nM, 4.7 nM and 2 nM.
For `COc1cc2ncn(-c3ccc([C@H](C)O)c(-c4cccc(C#N)c4)n3)c2cc1OC` [Example 37, (S)-3-(6-(5,6-Dimethoxy-1H-benzo[d]imidazol-1-yl)-3-(l-hydroxyethyl)pyridin-2-yl)benzonitrile], the IC50 in experiment [1] worked out at 15 nM; in experiment [2], 22.4 nM; in experiment [3], 4.9 nM.
For `Cc1ccc(Nc2ccc3c(c2)ncn3-c2ccc(C(C)O)c(N3CCOC(C(F)F)C3)n2)nn1` (stereo not drawn) [Example 323, 1-[2-[2-(difluoromethyl)morpholin-4-yl]-6-[5-[(6-methylpyridazin-3-yl)amino]benzimidazol-1-yl]-3-pyridyl]ethanol] the same measures were 2530 nM, 7.1 nM and 48.5 nM.
As for `Cc1ccc(Nc2cc3c(cc2F)ncn3-c2ccc(CO)c(-n3nc(C#N)cc3C)n2)nn1` [Example 314, 1-[6-[5-fluoro-6-[(6-methylpyridazin-3-yl)amino]benzimidazol-1-yl]-3-(hydroxymethyl)-2-pyridyl]-5-methyl-pyrazole-3-carbonitrile], the IC50 in experiment [1] came out at 70 nM; in experiment [2], 65.1 nM; in experiment [3] it was 52.4 nM.
For the compound `Cc1ccc(Nc2ccc3ncn(-c4ccc(C(C)O)c(N5CC[C@H]6NCC[C@@H]65)n4)c3c2)nn1` (stereo partly drawn) [Example 126, 1-[6-[6-[(6-Methylpyridazin-3-yl)amino]benzimidazol-1-yl]-2-[(3aS,6aR)-2,3,3a,5,6,6a-hexahydro-1H-pyrrolo[3,2-b]pyrrol-4-yl]-3-pyridyl]ethanol; formic acid], the IC50 is 65 nM in experiment [1], 228 nM in experiment [2] and 74.5 nM in experiment [3].
For `Cc1cc(C#N)nn1-c1nc(-n2cnc3cc(F)c(Nc4ccc(F)c(F)c4F)cc32)ccc1C(C)O` (stereo not drawn) [Example 379, 1-[6-[5-fluoro-6-(2,3,4-trifluoroanilino)benzimidazol-1-yl]-3-(1-hydroxyethyl)-2-pyridyl]-5-methyl-pyrazole-3-carbonitrile] the same measures were 1 nM, 0.4 nM and 0.2 nM.
The corresponding values for `Cc1ccc(Nc2ccc3ncn(-c4ccc(C(C)O)c(N(C)CC5(C#N)CC5)n4)c3c2)nn1` (stereo not drawn) [Example 172, 1-[[[3-(1-hydroxyethyl)-6-[6-[(6-methylpyridazin-3-yl)amino]benzimidazol-1-yl]-2-pyridyl]-methyl-amino]methyl]cyclopropanecarbonitrile] are 2620 nM, 1850 nM and 2090 nM.
As for `COC(C)Cn1ncc(-c2nc(-n3cnc4cc(Nc5ccc(C)nn5)ccc43)ccc2C(C)O)c1C` (stereo not drawn) [Example 279, 1-[2-[1-(2-methoxypropyl)-5-methyl-pyrazol-4-yl]-6-[5-[(6-methylpyridazin-3-yl)amino]benzimidazol-1-yl]-3-pyridyl]ethanol], the IC50 in experiment [1] was found to be 532 nM; in experiment [2] it was 2.9 nM; in experiment [3], 4.7 nM.
The corresponding values for `CCOc1cc(C)n(-c2nc(-n3cnc4cc(Nc5ccc(C)nn5)ccc43)ccc2C(C)O)n1` (stereo not drawn) [Example 133, 1-[2-(3-Ethoxy-5-methyl-pyrazol-1-yl)-6-[5-[(6-methylpyridazin-3-yl)amino]benzimidazol-1-yl]-3-pyridyl]ethanol; formic acid] are 447 nM, 2.2 nM and 7.7 nM.
The corresponding values for `COc1cc2ncn(-c3ccc(CO)c(-c4ccc(F)cc4OC)n3)c2cc1OC` [Example 16, (6-(5,6-Dimethoxy-1H-benzo[d]imidazol-1-yl)-2-(4-fluoro-2-methoxyphenyl)pyridin-3-yl)methanol] are 692 nM, 2180 nM and 313 nM.
On to `COc1cc2ncn(-c3ccc([C@@H](C)O)c(-c4ccc(C#N)cc4)n3)c2cc1OC` [Example 40, (R)-4-(6-(5,6-Dimethoxy-1H-benzo[d]imidazol-1-yl)-3-(1-hydroxyethyl)pyridin-2-yl)benzonitrile], for which the IC50 in experiment [1] turned out to be 1030 nM; in experiment [2], 1660 nM; in experiment [3] it was 517 nM.

The record behind these values is US20240383875A1, “Benzimidazole Pyridine Derivatives” (Hoffmann-La Roche Inc., priority 2022, published 2024).
